Reference: patent publication US12198788B2, “System for detecting an intraoral disease and determining a personalized treatment scheme and method of doing same” (priority 2017, dated 2025)

Columns and labels:
[1] = tested on: dental bacteria taken from various patients (oral flora); assay: In vitro determination of sensitivity of dental biofilm flora from individual patients to cannabinoid test panels; type: cell-based
From the text: Methods of the present invention are hereby exemplified. The trial included two stages: • a. Stage 1: In vitro determination of sensitivity of dental biofilm flora from individual patients to cannabinoid test panels. • b. Stage 2: Effectiveness of toothpaste compounded to individual patient's best cannabinoid panel formulations. Stage 1: In Vitro Determination of Sensitivity of Dental Biofilm Flora from Individual Patients to Cannabinoid Test Panels.
Ten (10) subjects (patients A-J) were involved in the trial. Dental biofilm was collected of these subjects by means of swabs, scrapes and other devices. The bacteria of this dental biofilm were characterized by conventional methods such as growth on selective media, microscopic examination and lab on-chip-laser analysis (e.g. Parochip).
Patient's bacteria from patients A-J were tested in vitro on substrates seeded with a panel of cannabinoids as illustrated in table 1 below:
Column Panels: • 1=CBDA; • 2=CBDA+CBNA; • 3=CBDA+CBNA+CBGA; • 4=CBDA+CBNA+CBGA+CBCA; • 5=CBDA+CBNA+CBGA+CBCA+CBNDA; • 6=Chlorohexadine control, and • 7=control with no antiseptic.
Results of in vitro testing are defined in terms of efficacy of panel cannabinoids in in vitro suppressing oral flora, in increasing scale of: • −, +, ++, +++, ++++, +++++

[2] = tested on: human oral biofilms (dental plaque); assay: Live bacterial cell counting (CTC staining, Cytation 5 imaging) after cannabinoid treatment of dental plaque colonies; type: cell-based
Method: This study evaluates different extracts/compounds on different types of human oral biofilms that normally are plaque-generating, further inducing light to severe periodontal diseases, as scored by DPSI (Dutch periodontic screening index).
Summary: The method includes: • a. randomized sampling of oral plaque biofilm from different consumers with 0-+4 DPSI, dental pulp extraction with chronic pulpitis; • b. cultivation of the samples in incubator with 37° C., for 1 day. The colonies underwent treatment with different types of compounds CBC, CBD, CBG, CBGA, CBN for 5 minutes; • c. staining with fluorescent special dyes for live bacterial cells, following the cannabinoid compounds' treatment and using one referral without cannabinoids treatment; • d. mounting on 6 channel micro slide dishes with 0.1 high; • e. imaging with Cytetion 5 Biotek microscope on 40 magnification, analyzing and running live cell counting. […]
The same procedure was employed on the second slide with the cells treated with 25% dilution of the cannabinoid of grower B. Accordingly slide 3 had the cells from grower A with 12.5% dilution and slide 4 had the cells 12.5% dilution from grower B. • d. […] Imaging modes include fluorescence, brightfield, color brightfield and phase contrast for a broad range of applications including live cell imaging, phenotypic assays, and 3D spheroids. […]

dental plaque microbes = assay: Culture of dental plaque microbes, streak applied to inoculum, 2 days incubation (FIG. 5); type: cell-based; settings: 2 days of incubation
[3] = tested on: dental pulp tissue (dental pulp extraction with chronic pulpitis); assay: Live bacterial cell counting after cannabinoid treatment, dental pulp tissue; type: cell-based, human
Method: Summary: The method includes: • a. randomized sampling of oral plaque biofilm from different consumers with 0-+4 DPSI, dental pulp extraction with chronic pulpitis; • b. cultivation of the samples in incubator with 37° C., for 1 day. The colonies underwent treatment with different types of compounds CBC, CBD, CBG, CBGA, CBN for 5 minutes; • c. staining with fluorescent special dyes for live bacterial cells, following the cannabinoid compounds' treatment and using one referral without cannabinoids treatment; • d. mounting on 6 channel micro slide dishes with 0.1 high; • e. imaging with Cytetion 5 Biotek microscope on 40 magnification, analyzing and running live cell counting.
Experimental methods: FIG. 6 depicts the steps of the methodology used in this protocol. The methodology includes the following steps: • a. Sample cultivation: Samples are collected with Flexi Grip 1702 Paro interdental brush. Cultivation on AGAR Petri Dish 100/15 mm incubated for 24 hours in 37° C. • b. Compound Treatment: The colonies are treated with 25%, 12.5% dilutions from 5 different type extracts from grower A+B. 0.5 μL compound were place in each vial, 3 colony spots were added, the mixture was agitated in centrifuge with 6-8.000 rpm for 1.5 min and suspended in 500 μL PBS. • c. Staining Mounting: Staining kit Bacstain—CTC Rapid Staining kit BS02 was used. All 5 samples and 1 referral were stained. […]

Row | SMILES | effectiveness against the flora (in words) ([1]; flora of patient B) | in vitro effectiveness of cannabinoids on dental bacteria ([1]; oral flora sample of patient A) | in vitro effectiveness of cannabinoids on dental bacteria ([1]; oral flora sample of patient B) | in vitro effectiveness of cannabinoids on dental bacteria ([1]; oral flora sample of patient C) | in vitro effectiveness of cannabinoids on dental bacteria ([1]; oral flora sample of patient D) | in vitro effectiveness of cannabinoids on dental bacteria ([1]; oral flora sample of patient E) | in vitro effectiveness of cannabinoids on dental bacteria ([1]; oral flora sample of patient F) | in vitro effectiveness of cannabinoids on dental bacteria ([1]; oral flora sample of patient G) | in vitro effectiveness of cannabinoids on dental bacteria ([1]; oral flora sample of patient H) | in vitro effectiveness of cannabinoids on dental bacteria ([1]; oral flora sample of patient I) | in vitro effectiveness of cannabinoids on dental bacteria ([1]; oral flora sample of patient J) | most efficient compound on the plaque of the consumer ([2]; 25% dilution, grower A, FIG. 10) | reduction from the live bacterial cells ([2]; dental plaque) | bacterial growth at streak applied to inoculum (dental plaque microbes) | reduction from the live bacterial cells [3]
1 | C=C(C)[C@@H]1CCC(C)=C[C@H]1c1c(O)cc(CCCCC)c(C(=O)O)c1O [Panel 1, Cannabidiolic acid] | effective | ++ | +++++ | ++++ | + | +++ | − | +++++ | ++ | − | − |  |  |  | 
2 | CCCCCc1cc(O)c(C/C=C(\C)CCC=C(C)C)c(O)c1C(=O)O [CBGA, Cannabigerolic acid] |  |  |  |  |  |  |  |  |  |  |  | most efficient | 95% |  | 
3 | [H]/N=C(\N/C(=N/[H])NCCCCCCNC(=N)NC(=N)Nc1ccc(Cl)cc1)Nc1ccc(Cl)cc1 [Panel 6, Chlorhexidine, reference compound] |  | ++ | ++ | + | ++ | − | − | +++ | + | ++ | − |  |  |  | 
4 | C=C(C)[C@@H]1CCC(C)=C[C@H]1c1c(O)cc(CCCCC)cc1O [CBD, Cannabidiol] |  |  |  |  |  |  |  |  |  |  |  |  |  | no bacterial growth | 92%
